Reference: patent publication US20210386367A1, “DEVICES AND SYSTEMS FOR GASTROINTESTINAL MICROBIOME DETECTION AND MANIPULATION” (Progenity, Inc., priority 2018, published 2021)
≈ marks a conversion by molar mass, not a printed value. Where “and” joins values, the source holds several entries; their conditions need not be identical. Equal entries are not always repeated. Where two headings read alike, the source gives them in different places.

Columns and labels:
[1] = system: Streptococcus spp. clinical isolates; assay: MIC distribution against clinical isolates; format: cell-based
Excerpt: (n=19 S. pyogenes, n=20 S. agalactiae and n=20 Viridans group Streptococcus) clinical isolates (μg/mL).
(§1) As used herein, “minimum inhibitory concentration” or “MIC” refers to the lowest concentration of an antimicrobial agent, for example, an antimicrobial agent as described herein, required to inhibit the growth of an organism. […] “MIC90” represents the MIC value at which ≥90% of the strains within a test population are inhibited; the 90th percentile.
(§2) Many susceptibility testing methods are known in the art and can be used as described herein (see, e.g., Jorgensen and Ferraro (2009) Clinical Infectious Diseases 49:1749-1755; and Maurer et al. (2017) Infectious Disease Reports 9:6839; the entire contents of each of the foregoing are incorporated herein by reference). For example, antimicrobial susceptibility can be determined using conventional culture based methods such as the broth or agar dilution test. In these dilution tests, the bacterial isolate of interest is inoculated onto different media that include serial dilutions of an antimicrobial agent, and incubated under appropriate conditions (e.g., overnight at 37° C.) to allow for growth to occur. Following the incubation period, the media is examined to determine bacterial growth. The lowest concentration of antibiotic that prevents growth represents the minimal inhibitory concentration (MIC). Broth dilution tests can be miniaturized and mechanized allowing for reproducibility and high throughput.

[2] = system: Staphylococcus aureus; assay: Broth microdilution MIC, 50 clinical isolates (28 MRSA); format: cell-based; settings: for MIC50 / MIC90: Staphylococcus aureus
Procedure: (§3) Minimal inhibitory concentration (MIC) values were determined by broth microdilution or agar dilution in accordance with guidelines from the Clinical and Laboratory Standards Institute (CLSI; (1) “Methods for Dilution Antimicrobial Susceptibility Tests for Bacteria That Grow Aerobically; Approved Standard; 11th ed.” CLSI standard M07-A11, 2018; (2) “Performance Standards for Antimicrobial Susceptibility Testing; Twenty-Eighth Informational Supplement,” CLSI document M100-S28, 2018; and (3) “Methods for Antimicrobial Susceptibility Testing of Anaerobic Bacteria; Approved Standard—Eighth Edition,” CLSI document M11-A8, 2012).
(§4) Tested aerobically by broth microdilution: • Escherichia coli, n=50 • Klebsiella spp., n=50 • Pseudomonas aeruginosa, n=50 • Streptococcus spp., n=50 • Staphylococcus aureus, n=50 • Enterococcus faecalis, n=50 • Enterobacter aerogenes, n=50 • Proteus mirabilis, n=50
(§5) Broth microdilution testing of aerobic bacteria was conducted in cation-adjusted Mueller Hinton broth (MHBII). For testing streptococci, lysed horse blood (LHB) was added to MHBII broth at a final concentration of 3%. Where LHB was used, it was added after filtering.
(§6) Broth microdilution susceptibility testing in 96-well microplates was conducted in accordance with CLSI methods (1) and (2). Automated liquid handlers were used to conduct serial dilutions and liquid transfers, including the Multidrop 384 (Labsystems, Helsinki, Finland), Biomek 2000, and the Biomek FX (Beckman Coulter, Fullerton, Calif.). All wells in columns 2 through 12 of a standard 96-well microdilution plate (Costar 3795) were filled with 150 μL of the appropriate diluent. Then, 300 μL of the test agents were added to the wells of column 1 of the plates at 100× the highest final concentration to be tested. Serial two-fold dilutions were made across the rows through column 11 using the Biomek 2000. The wells of column 12 contained no drug and served as the growth control wells. This plate served as the “mother plate” from which MIC assay plates or “daughter plates” were made.
(§7) The daughter plates were loaded with 190 μL per well of the appropriate medium using the Multidrop 384. The daughter plates were created using the Biomek FX which transferred 2 μL of drug solution from each well of a mother plate to each corresponding well of the daughter plate in a single step. A standardized inoculum of each test organism was prepared per CLSI methods (1) to equal a 0.5 McFarland standard, followed by a dilution of 1:20 for aerobes and 1:10 for anaerobes. The plates were then inoculated with 10 μL of the diluted inoculum using the Biomek 2000 from low to high drug concentration, resulting in a final concentration of approximately 5×10^5 CFU/mL per well. An un-inoculated plate was incubated in parallel for each medium for the purpose of assessing solubility of the drug in the test media.
(§8) Inoculated plates were stacked 3 or 4 high, covered with a sterile lid on the top plate, placed into boxes with CO2 planchets (streptococci) or plastic bags (all other isolates). Plates were incubated at 35° C. for 16-24 hr in ambient air for aerobes or for 42-48 hr in the anaerobic environment of the Bactron II anaerobe chamber (Sheldon Manufacturing Co.; Cornelius, Oreg.). Following incubation, the microplates were removed from the incubator and viewed from the bottom using a plate viewer. The MIC values were read and recorded as the lowest concentration of drug that inhibited visible growth of the organism as per CLSI methods (1) and (2).

[3] = system: Streptococcus pyogenes; assay: Broth microdilution MIC, 19 clinical isolates; format: cell-based; settings: for MIC50 / MIC90: Streptococcus pyogenes
Procedure: as §3, §4, §5, §6, §7, §8

[4] = system: Viridans group Streptococci clinical isolates; assay: MIC distribution against clinical isolates; format: cell-based; settings: 15 Viridans group Streptococci isolates
Excerpt: as §1, §2

[5] = system: Streptococcus pyogenes clinical isolates; assay: MIC distribution against clinical isolates; format: cell-based
Excerpt: as §1, §2

[6] = system: E. coli ATCC 25922; assay: Broth microdilution MIC (time-kill study); format: cell-based, Escherichia coli; settings: Escherichia coli, ATCC25922; E. coli ATCC 25922; read-out: MIC
[7] = system: B. fragilis ATCC 25285; assay: Broth microdilution MIC (time-kill study); format: cell-based, Bacteroides fragilis; settings: Bacteroides fragilis, ATCC25285; B. fragilis MMX 123 ATCC 25285; read-out: MIC
[8] = MIC 0.06 μg/mL, 54 Streptococcus spp. isolates
[9] = MIC 0.5 μg/mL, 54 Streptococcus spp. isolates
[10] = MIC 2 μg/mL, 54 Streptococcus spp. isolates
[11] = MIC 4 μg/mL, 54 Streptococcus spp. isolates
[12] = MIC 8 μg/mL, 54 Streptococcus spp. isolates
[13] = MIC 0.06 μg/mL, 19 S. pyogenes isolates
[14] = MIC 0.5 μg/mL, 19 S. pyogenes isolates

COc1c(N2C[C@@H]3CCCN[C@@H]3C2)c(F)cc2c(=O)c(C(=O)O)cn(C3CC3)c12 [moxifloxacin]
Cumulative percentage of isolates inhibited at MIC [1, 8]: 24.1% | Number of test isolates at MIC [1, 8]: 13 | Cumulative percentage of isolates inhibited at MIC [1, 9]: 90.7% | Number of test isolates at MIC [1, 9]: 1 | Cumulative percentage of isolates inhibited at MIC [1, 10]: 94.4% | Number of test isolates at MIC [1, 10]: 2 | Cumulative percentage of isolates inhibited at MIC [1, 11]: 98.1% | Number of test isolates at MIC [1, 11]: 2 | Cumulative percentage of isolates inhibited at MIC [1, 12]: 100.0% | Number of test isolates at MIC [1, 12]: 1 | Mode [2]: 1 µg/mL | MIC50 ([2]; read-out: MIC50): 0.12 µg/mL (≈ 0.299 µM) | MIC90 ([2]; read-out: MIC90): 2 µg/mL (≈ 4.98 µM) | MIC range [3]: 0.06 to 0.5 µg/mL | Mode [3]: 0.12 µg/mL | MIC50 ([3]; read-out: MIC50): 0.12 µg/mL (≈ 0.299 µM) | MIC90 ([3]; read-out: MIC90): 0.25 µg/mL (≈ 0.623 µM) | Cumulative percentage of isolates inhibited at MIC ([4]; MIC 0.06 μg/mL): 26.7% | Number of test isolates at MIC ([4]; MIC 0.06 μg/mL): 4 | Cumulative percentage of isolates inhibited at MIC ([4]; MIC 2 μg/mL): 80.0% | Number of test isolates at MIC ([4]; MIC 2 μg/mL): 2 | Cumulative percentage of isolates inhibited at MIC ([4]; MIC 4 μg/mL): 93.3% | Number of test isolates at MIC ([4]; MIC 4 μg/mL): 2 | Cumulative percentage of isolates inhibited at MIC ([4]; MIC 8 μg/mL): 100.0% | Number of test isolates at MIC ([4]; MIC 8 μg/mL): 1 | Cumulative percentage of isolates inhibited at MIC [5, 13]: 31.6% | Number of test isolates at MIC [5, 13]: 6 | Cumulative percentage of isolates inhibited at MIC [5, 14]: 100.0% | Number of test isolates at MIC [5, 14]: 1

CN[C@H](CC(C)C)C(=O)N[C@H]1C(=O)N[C@@H](CC(N)=O)C(=O)N[C@H]2C(=O)N[C@H]3C(=O)N[C@H](C(=O)N[C@H](C(=O)O)c4cc(O)cc(O)c4-c4cc3ccc4O)[C@H](O)c3ccc(c(Cl)c3)Oc3cc2cc(c3O[C@@H]2O[C@H](CO)[C@@H](O)[C@H](O)[C@H]2O[C@H]2C[C@](C)(N)[C@H](O)[C@H](C)O2)Oc2ccc(cc2Cl)[C@H]1O [vancomycin, Vancomycin]
Cumulative percentage of isolates inhibited at MIC ([1]; MIC 1 μg/mL, 54 Streptococcus spp. isolates): 100.0% | Cumulative percentage of isolates inhibited at MIC ([1]; listed as VAN): 50.0% and 96.3% | % S [2]: 100% | MIC range [2]: 0.25 to 1 µg/mL | Mode [2]: 0.5 µg/mL | MIC50 [2]: 0.5 µg/mL (≈ 0.345 µM) | MIC90 [2]: 1 µg/mL (≈ 0.69 µM) | MIC [6]: > 16 µg/mL | % S [3]: 100% | MIC range [3]: 0.25 to 0.5 µg/mL | Mode [3]: 0.25 µg/mL | MIC50 [3]: 0.25 µg/mL (≈ 0.173 µM) | MIC90 [3]: 0.5 µg/mL (≈ 0.345 µM) | MIC [7]: > 16 µg/mL | Cumulative percentage of isolates inhibited at MIC ([4]; MIC 1 μg/mL): 100.0% | Number of test isolates at MIC ([4]; MIC 1 μg/mL): 1 | Cumulative percentage of isolates inhibited at MIC ([5]; listed as VAN): 89.5% and 100.0%
